The target of the first experiment is human OX2R (Homo sapiens (Human), UniProt O43614). Kind of experiment: IPOne (IP-One, Cisbio) orexin receptor agonist assay in CHO cells expressing human OX2R.
human OX2R, sequence (O43614 whole entry): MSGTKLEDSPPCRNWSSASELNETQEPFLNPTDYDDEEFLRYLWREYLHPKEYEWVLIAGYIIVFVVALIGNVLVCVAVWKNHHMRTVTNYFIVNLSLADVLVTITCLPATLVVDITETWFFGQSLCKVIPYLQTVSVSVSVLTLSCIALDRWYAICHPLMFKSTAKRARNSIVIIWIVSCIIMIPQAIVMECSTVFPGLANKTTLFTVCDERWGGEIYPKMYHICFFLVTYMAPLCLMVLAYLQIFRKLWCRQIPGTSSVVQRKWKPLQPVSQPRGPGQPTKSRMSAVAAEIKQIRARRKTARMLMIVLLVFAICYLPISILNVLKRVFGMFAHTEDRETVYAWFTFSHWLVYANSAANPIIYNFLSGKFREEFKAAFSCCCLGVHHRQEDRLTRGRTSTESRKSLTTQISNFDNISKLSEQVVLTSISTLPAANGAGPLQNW
Details: not given
Regarding `COC(=O)N1[C@@H](CO[C@H]2CC[C@@H](c3ccccc3)CC2)[C@@H](NS(C)(=O)=O)CC12CC2` (relative stereo) [Example 41, methyl (CIS)-6-(methylsulfonamido)-5-((((CIS)-4-phenylcyclohexyl)oxy)methyl)-4-azaspiro[2.4]heptane-4-carboxylate], the IC50 came to 224 nM. On the same count and under the same terms, with `CCC1(CC)C[C@@H](NS(C)(=O)=O)[C@@H](CO[C@H]2CC[C@@H](c3ccccc3)CC2)N1C(=O)OC` (relative stereo) [Example 42, methyl (CIS)-2,2-diethyl-4-(methylsulfonamido)-5-((((CIS)-4-phenylcyclohexyl)oxy)methyl)-pyrrolidine-1-carboxylate] the figure was 316 nM; with `CCNC(=O)N1[C@H](C)C[C@H](NS(C)(=O)=O)[C@@H]1COC1CCC(C(C)C)CC1` (stereo partly drawn) [Example 1, (2R,3S,5R)—N-ethyl-2-(((4-isopropylcyclohexyl)oxy)methyl)-5-methyl-3-(methylsulfonamido)-pyrrolidine-1-carboxamide], 15.2 nM. Compound `CCOC(=O)N1[C@H](C)C[C@H](NS(C)(=O)=O)[C@@H]1COC1CCC(C(C)C)CC1` (stereo partly drawn) [Example 7, ethyl (2R,3S,5R)-2-(((4-isopropylcyclohexyl)oxy)meth-yl)-5-methyl-3-(methylsulfonamido)pyrrolidine-1-carboxylate] yielded a concentration for half-maximal inhibition (IC50) of 45.5 nM.

Still in this experiment, the particulars now being: CHO, hOX2R_IP; percentage of mean max effect of a reference compound at 1 uM (100% activity vs Orexin A).
Take `CC[C@@H]1C[C@H](NS(C)(=O)=O)[C@H](CO[C@H]2CC[C@@H](c3ccccc3)CC2)N1C(=O)OC` (racemic) [Example 43, methyl (2R,3S,5R)-5-ethyl-3-(methylsulfonamido)-2-((((CIS)-4-phenylcyclohexyl)oxy)methyl)-pyrrolidine-1-carboxylate]: the Emax came to 103%.

In turn, `COC(=O)N1[C@@H](CO[C@H]2CC[C@@H](c3ccccc3)CC2)[C@@H](NS(C)(=O)=O)CC12CC2` (relative stereo) [Example 41, methyl (CIS)-6-(methylsulfonamido)-5-((((CIS)-4-phenylcyclohexyl)oxy)methyl)-4-azaspiro[2.4]heptane-4-carboxylate] had an Emax of 99%.

Consider `CCC1(CC)C[C@@H](NS(C)(=O)=O)[C@@H](CO[C@H]2CC[C@@H](c3ccccc3)CC2)N1C(=O)OC` (relative stereo) [Example 42, methyl (CIS)-2,2-diethyl-4-(methylsulfonamido)-5-((((CIS)-4-phenylcyclohexyl)oxy)methyl)-pyrrolidine-1-carboxylate], for which the Emax came to 100%. With `CCNC(=O)N1[C@H](C)C[C@H](NS(C)(=O)=O)[C@@H]1COC1CCC(C(C)C)CC1` (stereo partly drawn) [Example 1, (2R,3S,5R)—N-ethyl-2-(((4-isopropylcyclohexyl)oxy)methyl)-5-methyl-3-(methylsulfonamido)-pyrrolidine-1-carboxamide], the Emax amounted to 101%. Same read-out and setting: with `CCNC(=O)N1[C@H](C)C[C@H](NS(C)(=O)=O)[C@@H]1COC1CCC(C(F)(F)F)CC1` (stereo partly drawn) [Example 2, (2R,3S,5R)—N-ethyl-5-methyl-3-(methylsulfonamido)-2-(((4-(trifluoromethyl)-cyclohexyl)oxy)methyl)pyrrolidine-1-carboxamide] the figure was 100%; with `COC(=O)N1[C@H](C)C[C@H](NS(C)(=O)=O)[C@@H]1COC1CCC(C(C)C)CC1` (stereo partly drawn) [Example 3, methyl (2R,3S,5R)-2-(((4-isopropylcyclohexyl)oxy)methyl)-5-methyl-3-(methylsulfonamido)pyrrolidine-1-carboxylate], 98%. With `CC(C)OC(=O)N1[C@H](C)C[C@H](NS(C)(=O)=O)[C@@H]1COC1CCC(C(C)C)CC1` (stereo partly drawn) [Example 5, isopropyl (2R,3S,5R)-2-(((4-isopropylcyclohexyl)oxy)meth-yl)-5-methyl-3-(methylsulfonamido)pyrrolidine-1-carboxylate], the Emax amounted to 101%.

On to `CCOC(=O)N1[C@H](C)C[C@H](NS(C)(=O)=O)[C@@H]1COC1CCC(C(C)C)CC1` (stereo partly drawn) [Example 7, ethyl (2R,3S,5R)-2-(((4-isopropylcyclohexyl)oxy)meth-yl)-5-methyl-3-(methylsulfonamido)pyrrolidine-1-carboxylate], for which the Emax stood at 100%.

For `CCOC(=O)N1[C@H](C)C[C@H](NS(=O)(=O)N(C)C)[C@@H]1COC1CCC(C(C)C)CC1` (stereo partly drawn) [Example 8, ethyl (2R,3S,5R)-3-((N,N-dimethylsulfamoyl)amino)-2-(((4-isopropylcyclohexyl)oxy)meth-yl)-5-methylpyrrolidine-1-carboxylate], the Emax amounted to 101%. On the same count and under the same terms, with `CC(C)C1CCC(OC[C@H]2[C@@H](NS(C)(=O)=O)C[C@@H](C)N2C(=O)OCC(F)F)CC1` (stereo partly drawn) [Example 9, 2,2-difluoroethyl (2R,3S,5R)-2-(((4-isopropylcyclohexyl)oxy)meth-yl)-5-methyl-3-(methylsulfonamido)pyrrolidine-1-carboxylate] the figure was 101%. `CC(C)C1CCC(OC[C@H]2[C@@H](NS(C)(=O)=O)C[C@@H](C)N2C(=O)OCCF)CC1` (stereo partly drawn) [Example 10, 2-fluoroethyl (2R,3S,5R)-2-(((4-isopropylcyclohexyl)oxy)meth-yl)-5-methyl-3-(methylsulfonamido)pyrrolidine-1-carboxylate]: the maximal response (Emax) turned out to be 99%. Turning to `COC(=O)N1[C@H](C)C[C@H](NS(=O)(=O)N(C)C)[C@@H]1COC1CCC(C(F)(F)F)CC1` (stereo partly drawn) [Example 11, methyl (2R,3S,5R)-3-((N,N-dimethylsulfamoyl)amino)-5-methyl-2-(((4-(trifluoromethyl)cyclohexyl)oxy)methyl)pyrrolidine-1-carboxylate], the Emax came out at 99%. Regarding `COC(=O)N1[C@H](C)C[C@H](NS(C)(=O)=O)[C@@H]1COC1CCC(CC(F)(F)F)CC1` (stereo partly drawn) [Example 12, methyl (2R,3S,5R)-5-methyl-3-(methylsulfonamido)-2-(((4-(2,2,2-trifluoroethyl)cyclohexyl)oxy)methyl)pyrrolidine-1-carboxylate], the Emax came to 99%. Same read-out and setting: the figure for `CC(C)C1CCC(OC[C@H]2[C@@H](NS(=O)(=O)N(C)C)C[C@@H](C)N2C(=O)OCC(F)F)CC1` (stereo partly drawn) [Example 14, 2,2-difluoroethyl (2R,3S,5R)-3-((N,N-dimethylsulfamoyl)amino)-2-(((4-isopropylcyclohexyl)oxy)meth-yl)-5-methylpyrrolidine-1-carboxylate] is 100%.

Staying with this experiment, now noted: hOX2R_IP; percentage of mean max effect of a reference compound at 1 uM (100% activity vs Orexin A).
`C=C[C@@H]1C[C@H](NS(C)(=O)=O)[C@H](CO[C@H]2CC[C@@H](c3ccccc3)CC2)N1C(=O)OC` (relative stereo) [Example 48, methyl (CIS)-3-(methylsulfonamido)-2-((((CIS)-4-phenylcyclohexyl)oxy)methyl)-5-vinylpyrrolidine-1-carboxylate]: the “Emax (%)” value is 102%.

`COC(=O)N1[C@H](C)C[C@H](NS(C)(=O)=O)[C@@H]1CO[C@H]1CC[C@@H](C(C)C)CC1` [Example 4, methyl (2R,3S,5R)-2-((((1s,4S)-4-isopropylcyclohexyl)oxy)methyl)-5-methyl-3-(methylsulfonamido)pyrrolidine-1-carboxylate]: the “Emax (%)” value was 102%. Still for that read-out and setting: the figure for `CNS(=O)(=O)N[C@H]1C[C@@H](C)N(C(=O)OC(C)C)[C@H]1COC1CCC(C(C)C)CC1` (stereo partly drawn) [Example 6, isopropyl (2R,3S,5R)-2-(((4-isopropylcyclohexyl)oxy)meth-yl)-5-methyl-3-((N-methylsulfamoyl)amino) pyrrolidine-1-carboxylate] is 100%; for `CNS(=O)(=O)N[C@H]1C[C@@H](C)N(C(=O)OCC(F)F)[C@H]1COC1CCC(C(C)C)CC1` (stereo partly drawn) [Example 13, 2,2-difluoroethyl (2R,3S,5R)-2-(((4-isopropylcyclohexyl)oxy)meth-yl)-5-methyl-3-((N-methylsulfamoyl)amino)pyrro-lidine-1-carboxylate] it is 101%. On the same count and under the same terms, with `COC(=O)N1[C@H](C)C[C@H](NS(C)(=O)=O)[C@@H]1CO[C@H]1CC[C@@H](c2ccccc2)CC1` [Example 15, methyl (2R,3S,5R)-5-methyl-3-(methylsulfonamido)-2-((((1s,4S)-4-phenylcyclohexyl)oxy)-methyl)pyrrolidine-1-carboxylate] the figure was 101%. Regarding `CNS(=O)(=O)N[C@H]1C[C@@H](C)N(C(=O)OCC(F)F)[C@H]1CO[C@H]1CC[C@@H](c2ccccc2)CC1` [Example 16, 2,2-difluoroethyl (2R,3S,5R)-5-methyl-3-((N-methylsulfamoyl)amino)-2-((((1s,4S)-4-phenylcyclohexyl)oxy)methyl)pyrrolidine-1-carboxylate], the “Emax (%)” value turned out to be 101%.

In general, IC50 refers to the midpoint of a concentration-inhibition curve. By Emax is commonly meant the size of the effect at its maximum, as opposed to the concentration needed.

Values taken from patent US11098029B2, “5-alkyl pyrrolidine orexin receptor agonists” (Merck Sharp & Dohme Corp., priority 2019, dated 2021).
